Like-named read-outs stand apart in the source and are kept apart here.
Legend:
heaves (equine COPD) = format: in vivo, horse
Protocol: According to this example, a quarter horse mare, at least 20 years of age, suffering from symptoms of heaves (equine COPD) for over ten years was treated subcutaneously twice daily with synthetic DNA. Each dose contained 0.0003 mg of poly(dA):poly(dT) synthetic DNA (Sigma) diluted in phenolated saline. […] Specifically, the horse was no longer coughing, nostrils were not flaring, and breathing was less labored. After one week of administering two doses per day, administration was reduced to once per day for two weeks, then given only on an “as needed” basis.
According to this example, a 15 year old gelding (male horse) suffering from heaves (equine COPD) for over two years was treated with synthetic DNA as described in example XXXIX.

cystic fibrosis = experiment: Treatment of cystic fibrosis patients with DNA drops; format: in vivo, human; settings: person, advanced cystic fibrosis, 0.0003 mg per sublingual drop, four times daily
respiratory congestion = experiment: Treatment of patients with respiratory congestion (emphysema, bronchitis, upper respiratory illness, sinusitis); format: in vivo, human; settings: middle-aged person, chronic sinusitis, one sublingual drop (0.0003 mg) four times daily
Protocol: A patient who suffered from emphysema and bronchitis, as diagnosed by their physician, was placed on a dose of 1 drop per day (0.0006 mg/drop) of DNA sublingually.
A person diagnosed with chronic upper respiratory illness was treated with methods according to the invention. Previous antibiotic therapy was unsuccessful in treating their condition. […] They have remained symptom free.
A nurse presented with a severe upper respiratory infection and unproductive respiratory congestion. […] Expectoration was improved and the patient's illness resolved after 4.5 days and no congestion recurred.
A person presented with chronic sinusitis. Four drops of DNA per day were administered.
A person presented with unresolved respiratory congestion. […] The patient was then prescribed four drops of DNA (0.0006 mg/drop) per day.
A person with unproductive upper respiratory congestion was placed on 4 drops of DNA (0.0006 mg/drop) per day. […] In this case, therapy was supplemented with an over-the-counter expectorant.
A person with acute and chronic respiratory disease due to exposure to toxic corrosive materials was treated with methods according to the invention. Prior to such treatment, symptoms, including chronic rhinorrhea, chest congestion and chronic respiratory infections were treated with numerous courses of antibiotics without success. […]

Substance: poly(dG):poly(dC)
- condition of the horse (heaves (equine COPD); 15 year old gelding): significant improvement
- condition of the horse (heaves (equine COPD); quarter horse mare, identical treatment): significant improvement
- therapeutic activity after change to synthetic DNA (cystic fibrosis): same results

Substance: poly(dA):poly(dT)
- improvement (heaves (equine COPD); 15 year old gelding, treated as in example XXXIX): Improvement was noted within the first three days
- adverse effects (heaves (equine COPD); in vivo): no adverse effects noted
- condition of the horse (heaves (equine COPD); quarter horse mare, 0.0003 mg subcutaneously twice daily, thirty-six hours after treatment began): significantly improved
- overall response (respiratory congestion): improved overall response, including the absence of headaches
- time to improvement in condition (respiratory congestion): ≤ 48 h
- therapeutic activity after change to synthetic DNA (cystic fibrosis): no decrease in therapeutic activity

Reference: patent US20030032614A1, “Method of treating respiratory distress using synthetic polynucleic acids” (priority 1995, published 2003)
